The text below walks through data of patent US5703070A, “Indole, indazole and benzisoxazole compounds” (Adir et Compagnie, priority 1995, dated 1997).

SMILES strings stand for the structures. Where two headings read alike, the source gives them in different places.

Data set [1] concerns the target T1, 5-HT2A receptors (Rattus norvegicus, UniProt P14842).
T1 construct: from tissue; host or cells: rat frontal cortex (own knowledge of the cited method)
As to the kind of experiment: Conventional binding studies, receptor profile: 5-HT2A. To be noted: for Ki: Receptor profile Ki, 5-HT2A; for D2 /5-HT2A: ratio of Ki values D2 / 5-HT2A. On the procedure:
(§1) The interaction of these compounds with various receptors was determined by using conventional binding studies, such as those described by M. J. Millan et at. […] The affinities of the compounds are expressed in Ki.

Data set [2] concerns the target T2, 5-HT2C receptors (Sus scrofa, UniProt K7GSR7).
T2 construct: from tissue; host or cells: pig choroid plexus (own knowledge of the cited method)
T2 sequence (K7GSR7 1-457): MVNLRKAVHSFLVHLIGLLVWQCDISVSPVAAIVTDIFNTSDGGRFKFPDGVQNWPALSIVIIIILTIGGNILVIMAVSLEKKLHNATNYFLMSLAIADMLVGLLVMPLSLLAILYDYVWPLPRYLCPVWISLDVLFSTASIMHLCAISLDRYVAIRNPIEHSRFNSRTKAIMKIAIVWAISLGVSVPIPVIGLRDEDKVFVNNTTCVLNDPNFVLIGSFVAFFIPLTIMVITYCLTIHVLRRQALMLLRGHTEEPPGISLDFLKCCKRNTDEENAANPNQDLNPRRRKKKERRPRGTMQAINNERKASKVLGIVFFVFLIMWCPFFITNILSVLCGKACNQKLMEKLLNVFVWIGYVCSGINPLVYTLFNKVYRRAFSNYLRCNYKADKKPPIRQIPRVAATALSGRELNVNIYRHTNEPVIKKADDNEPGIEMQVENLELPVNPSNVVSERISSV
As to the kind of experiment: biochemical. To be noted: Receptor profile Ki, 5-HT2C. It counts as binding. How it is done:
as §1

Data set [3] addresses 5-HT1A receptors (Rattus norvegicus, UniProt P19327). As to the kind of experiment: biochemical. To be noted: for D2 /5-HT1A: ratio of Ki values D2 / 5-HT1A. It counts as binding. On the procedure:
as §1

In data set [4] the target is T3, D2 receptors (Rattus norvegicus, UniProt P61169).
T3 construct: from tissue; host or cells: rat striatum (own knowledge of the cited method)
As to the kind of experiment: biochemical. It counts as binding. On the procedure:
as §1

Data set [5] deals with 5-HT2C receptors. As to the kind of experiment: biochemical. It counts as binding. To be noted: ratio of Ki values D2 / 5-HT2C. How it is done:
as §1

A short description of data set [6]: in vivo. To be noted: rat, sc.
Data set [7] deals with mesolimbic dopaminergic pathways. Nature of the data set: Verticalization test with apomorphine in mice (antipsychotic properties). To be noted: for ED50: Mus musculus, sc; for Verticalization (Apomorphine) ID50: mice.
Data set [8] deals with nigrostriatal dopaminergic transmission. To be noted: background, literature; cited from earlier work.
The test system of data set [9] is schizophrenia. To be noted: cited from earlier work; for extrapyramidal syndrome: in vivo.
In data set [10] the test system is nigrostriatal dopaminergic transmission. As to the kind of experiment: Catalepsy in rats (extrapyramidal potential). To be noted: for ED50 /ID50 Ratio: catalepsy ED50 (rats) / verticalization ID50 (mice), hydrochloride.
The mark [11] stands for this setting: read-out: Receptor profile Ki, 5-HT1A.
The mark [12] stands for this setting: read-out: Receptor profile Ki, D2.
The mark [13] stands for this setting: read-out: Verticalization (Apomorphine) ID50, mice, s.c. 30 min before test, apomorphine 0.75 mg/kg s.c.
[14] abbreviates: read-out: Verticalization (Apomorphine) ID50.
The mark [15] stands for this setting: s.c. 30 min before test, apomorphine 0.75 mg/kg s.c., hydrochloride.

T3 sequence (P61169 whole entry): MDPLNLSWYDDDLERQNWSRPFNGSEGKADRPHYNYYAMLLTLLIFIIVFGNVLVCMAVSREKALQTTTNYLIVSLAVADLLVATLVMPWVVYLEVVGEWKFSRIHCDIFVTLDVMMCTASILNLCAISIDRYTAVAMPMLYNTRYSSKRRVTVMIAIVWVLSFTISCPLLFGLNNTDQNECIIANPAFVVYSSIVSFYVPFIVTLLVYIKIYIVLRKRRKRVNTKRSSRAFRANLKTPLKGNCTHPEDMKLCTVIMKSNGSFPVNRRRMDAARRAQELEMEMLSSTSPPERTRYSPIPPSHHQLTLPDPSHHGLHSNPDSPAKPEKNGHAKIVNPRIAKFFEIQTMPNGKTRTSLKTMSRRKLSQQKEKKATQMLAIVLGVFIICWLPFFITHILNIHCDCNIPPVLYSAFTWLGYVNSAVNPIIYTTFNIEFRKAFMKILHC
T1 sequence (P14842 whole entry): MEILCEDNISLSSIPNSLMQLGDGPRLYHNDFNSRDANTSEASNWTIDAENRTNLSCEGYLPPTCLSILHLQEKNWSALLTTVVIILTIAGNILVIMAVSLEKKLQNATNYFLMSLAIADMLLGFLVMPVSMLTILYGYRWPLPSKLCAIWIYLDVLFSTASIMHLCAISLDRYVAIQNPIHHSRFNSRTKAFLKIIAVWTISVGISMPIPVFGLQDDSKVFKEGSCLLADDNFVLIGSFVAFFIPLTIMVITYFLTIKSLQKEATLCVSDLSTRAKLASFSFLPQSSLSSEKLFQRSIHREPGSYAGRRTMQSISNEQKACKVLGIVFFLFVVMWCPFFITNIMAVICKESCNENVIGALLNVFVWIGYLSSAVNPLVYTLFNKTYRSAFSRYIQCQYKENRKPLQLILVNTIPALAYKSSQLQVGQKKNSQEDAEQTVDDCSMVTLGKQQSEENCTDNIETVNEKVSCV
Sequence of 5-HT1A receptors (P19327 whole entry): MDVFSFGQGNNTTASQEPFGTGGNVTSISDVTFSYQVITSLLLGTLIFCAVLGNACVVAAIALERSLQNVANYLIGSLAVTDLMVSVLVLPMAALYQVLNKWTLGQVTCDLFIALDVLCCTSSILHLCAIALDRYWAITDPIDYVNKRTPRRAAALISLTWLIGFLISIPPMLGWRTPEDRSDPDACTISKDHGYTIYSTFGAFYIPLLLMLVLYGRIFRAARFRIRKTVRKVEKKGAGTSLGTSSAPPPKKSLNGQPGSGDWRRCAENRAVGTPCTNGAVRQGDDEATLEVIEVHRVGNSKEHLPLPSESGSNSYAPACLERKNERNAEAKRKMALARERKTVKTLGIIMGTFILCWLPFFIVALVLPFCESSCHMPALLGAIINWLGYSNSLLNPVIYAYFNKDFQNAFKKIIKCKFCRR

Consider `COc1ccc2[nH]cc(CCCN3CCC(CC(=O)c4ccc(F)cc4)C3)c2c1.Cl` (racemic) [Ex. 3, 3-{3-[3-(4-Fluorobenzoylmethyl)pyrrolidin-1-yl]propyl}-5-methoxyindole hydrochloride], for which the Ki in [1] stood at 1 nM; in data set [2] it was 3.3 nM; in data set [3] (setting [11]), 1 nM; in data set [4] (setting [12]), 5.2 nM. In data set [1], the “D2 /5-HT2A” value was determined as 5.2. Also, the “D2 /5-HT1A” value in [3] was 5.2. For the same molecule, the “D2 /5-HT2C” value in data set [5] was 1.6. In data set [6], this molecule gave an ED50 at 0.5 h above 40 mg/kg. The selectivity ratio in [6] was above 266. Besides, in [7] (setting [13]), the ED50 came out at 0.15 mg/kg.

Consider `CN1CCN(C2=Nc3cc(Cl)ccc3Nc3ccccc32)CC1` [Clozapine], for which the cataleptogenic effect entry in [8] is “absence of cataleptogenic effect”. This molecule also yielded an ED50 at 0.5 h in data set [6] above 40 mg/kg. Also, the toxicity result in data set [9] (general treatment of schizophrenic conditions) was “due to its toxicity, clozapine cannot be envisaged in the general treatment of schizophrenic conditions”. Besides, the extrapyramidal syndrome result in data set [9] is given as “virtually no extrapyramidal syndrome”. The “Verticalization (Apomorphine) ID50” value in [7] (s.c. 30 min before test, apomorphine 0.75 mg/kg s.c.) was 2.2 mg/kg/S.C.

Take `COc1ccc2[nH]cc(CCN3CCC(CC(=O)c4ccc(F)cc4)C3)c2c1.Cl` (centres unmarked) [Ex. 1, 3-{2-[3-(4-Fluorobenzoylmethyl)pyrrolidin-1-yl]ethyl}-5-methoxyindole hydrochloride]: the Ki came to 1.6 nM in [1]; 50 nM in [2]; 0.6 nM in [3] (Receptor profile Ki, 5-HT1A); 110 nM in data set [4]. Besides, the “D2 /5-HT2A” value in data set [1] is 69. In addition, the “D2 /5-HT1A” value in data set [3] amounted to 183. For the same molecule, the “D2 /5-HT2C” value in data set [5] came out at 22. Moreover, in data set [6], the ED50 at 0.5 h is above 40 mg/kg. Besides, the selectivity ratio in data set [6] was above 129. Also, in data set [7] (setting [14]), the ED50 was 0.31 mg/kg.

As to `COc1ccc2c(c1)c(CCN1CCC(CC(=O)c3ccc(F)cc3)C1)cn2C.Cl` (centres unmarked) [Ex. 2, 1-Methyl-3-{2-[3-(4-fluorobenzoylmethyl)pyrrolidin-1-yl]ethyl}-5-methoxyindole hydrochloride], the inhibition constant (Ki) was found to be 1.3 nM in data set [1], 16 nM in [2], 141 nM in [3] (setting [11]) and 132 nM in [4] (setting [12]). The “D2 /5-HT2A” value in data set [1] is listed as 101. Also, the “D2 /5-HT1A” value in [3] stood at 0.9. Further, in [5], the “D2 /5-HT2C” value amounted to 8.3. Also, in data set [6], the ED50 at 0.5 h is above 40 mg/kg. Moreover, in data set [6], the selectivity ratio is above 32. Moreover, the ED50 in [7] (setting [13]) was 1.25 mg/kg.

Take `COc1ccc2[nH]cc(CCCN3CCC(CC(=O)c4ccc(F)cc4)C3)c2c1.Cl` (centres unmarked) [Ex. 4, 3-{3-[3-(4-fluorobenzoylmethyl)pyrrolidin-1-yl]propyl}-5-methoxyindole hydrochloride]: the “ED50 /ID50 Ratio” value in data set [10] is given as above 133. In addition, the Ki stood at 1.2 nM in data set [1], 4 nM in data set [2], 1.1 nM in data set [3] (setting [11]) and 6.3 nM in [4] (setting [12]). Besides, the “D2 /5-HT2A” value in [1] (hydrochloride) is on record as 5.2. Besides, the “D2 /5-HT1A” value in data set [3] (hydrochloride) stood at 5.7. For the same molecule, in data set [5] (hydrochloride), the “D2 /5-HT2C” value is given as 1.6. Moreover, the ED50 at 0.5 h in [6] was above 40 mg/kg. Also, the “Verticalization (Apomorphine) ID50” value in [7] (setting [15]) was 0.3 mg/kg/S.C.

As for `COc1ccc2[nH]cc(CCCN3CCC(CC(=O)c4ccc(F)cc4)C3)c2c1.Cl` (centres unmarked) [Ex. 5, 3-{3-[3-(4-fluorobenzoylmethyl)pyrrolidin-1-yl]propyl}-5-methoxyindole hydrochloride], in data set [10], the “ED50 /ID50 Ratio” value is given as above 307. Besides, the “Induction of catalepsy ED50” value in data set [10] (rats, s.c. 30 min before test, dose inducing catalepsy for mean 15 seconds) is given as above 40.0 mg/kg/S.C. Moreover, the Ki in [1] was determined as 1.7 nM; in data set [2], 3.8 nM; in data set [3] (setting [11]), 0.4 nM; in data set [4] (setting [12]), 7.1 nM. In addition, the “D2 /5-HT2A” value in data set [1] (hydrochloride) was found to be 4.2. In data set [3] (hydrochloride), the “D2 /5-HT1A” value was 17.8. Also, in data set [5] (hydrochloride), the “D2 /5-HT2C” value was found to be 1.9. The “Verticalization (Apomorphine) ID50” value in [7] (setting [15]) is recorded as 0.13 mg/kg/S.C.

Regarding `COc1ccc2c(c1)c(CCCN1CCC(CC(=O)c3ccc(F)cc3)C1)cn2C.Cl` (centres unmarked) [Ex. 6, 1-Methyl-3-{3-[3-(4-fluorobenzoylmethyl)pyrrolidin-1-yl]propyl}-5-methoxyindole hydrochloride], the Ki in data set [1] was found to be 4.3 nM; in data set [2] it was 17 nM; in data set [3] (setting [11]) it was 39 nM; in data set [4] (setting [12]) it was 15.4 nM. In addition, the “D2 /5-HT2A” value in [1] is 3.6. Further, the “D2 /5-HT1A” value in data set [3] turned out to be 0.4. The “D2 /5-HT2C” value in [5] is 0.9.

Turning to `COc1ccc2[nH]cc(CCCN3CCCC(C(=O)c4ccc(F)cc4)CC3)c2c1.Cl` (centres unmarked) [Ex. 7, 3-{3-[4-(4-Fluorobenzoyl)perhydroazepin-1-yl]propyl}-5-methoxyindole hydrochloride], the Ki was found to be 2.7 nM in data set [1], 117 nM in [2], 0.7 nM in [3] (setting [11]) and 43.5 nM in [4] (setting [12]). In addition, the “D2 /5-HT2A” value in data set [1] is 1.6. The “D2 /5-HT1A” value in [3] is 62. Moreover, the “D2 /5-HT2C” value in data set [5] came out at 0.4. The molecule further showed an ED50 at 0.5 h in data set [6] above 40 mg/kg. Further, the selectivity ratio in [6] is above 80. Besides, in [7] (setting [13]), the ED50 was found to be 0.5 mg/kg.

Take `Cl.O=C(CC1CCN(CCCc2c[nH]c3ccc(F)cc23)C1)c1ccc(F)cc1` (centres unmarked) [Ex. 8, 3-{3-[3-(4-Fluorobenzoylmethyl)pyrrolidin-1-yl]propyl}-5-fluoroindole hydrochloride]: the Ki in data set [1] turned out to be 6.6 nM; in data set [2], 19 nM; in data set [3] (setting [11]), 12.3 nM; in data set [4] (setting [12]) it was 9.5 nM. Also, the “D2 /5-HT2A” value in [1] turned out to be 1.4. For the same molecule, the “D2 /5-HT1A” value in data set [3] came out at 0.8. Moreover, the “D2 /5-HT2C” value in data set [5] was determined as 0.5. The molecule also registered an ED50 at 0.5 h in [6] above 40 mg/kg. The selectivity ratio in [6] is above 80. Further, the ED50 in data set [7] (setting [13]) stood at 0.5 mg/kg.

In the case of `COc1ccc2[nH]cc(CCCN3CCC(Cc4noc5cc(F)ccc45)C3)c2c1.Cl` (centres unmarked) [Ex. 9, 6-Fluoro-3-{1-[3-(5-methoxyindol-3-yl)propyl]pyrrolidin-3-ylmethyl}-1,2-benzisoxazole hydrochloride], the Ki in [1] is 3.2 nM; in data set [2], 7.9 nM; in data set [3] (setting [11]), 0.7 nM; in data set [4] (setting [12]) it was 98 nM. Further, in data set [1], the “D2 /5-HT2A” value is recorded as 31. In data set [3], the “D2 /5-HT1A” value is given as 143. The “D2 /5-HT2C” value in data set [5] was 13. In data set [6], this molecule showed an ED50 at 0.5 h above 40 mg/kg. For the same molecule, the selectivity ratio in data set [6] was above 40. Further, the ED50 in data set [7] (setting [13]) turned out to be 1 mg/kg.

In data set [6], `O=C(CCCN1CCC(O)(c2ccc(Cl)cc2)CC1)c1ccc(F)cc1` [Haloperidol] displayed an ED50 at 0.5 h of 0.14 mg/kg. For the same molecule, in data set [9], the extrapyramidal syndrome entry is listed as “cause an extrapyramidal syndrome of Parkinsonian type”. Also, the “treatment of productive symptoms” value in data set [9] (such as fantasizing and hallucinations) is listed as “fairly well”. In data set [9] (such as social withdrawal), the “effectiveness with respect to deficiency symptoms” value is listed as “very low”. For the same molecule, in data set [7] (setting [14]), the ED50 was 0.01 mg/kg.

On to `COc1ccc2[nH]cc(CCCN3CCC(C(=O)c4ccc(F)cc4)CC3)c2c1.Cl` [Ref. A, 3-{3-[4-(4-Fluorobenzoyl)piperidin-1-yl]propyl}-5-methoxyindole hydrochloride, reference compound], for which the Ki is 8.5 nM in [1], 98 nM in data set [2], 5.6 nM in data set [3] (setting [11]) and 11 nM in data set [4] (setting [12]). Also, the “D2 /5-HT2A” value in [1] is 1.3. Moreover, in data set [3], the “D2 /5-HT1A” value came out at 2. Besides, in data set [5], the “D2 /5-HT2C” value is listed as 0.1. Also, the ED50 at 0.5 h in data set [6] worked out at 1.4 mg/kg. In [6], the selectivity ratio turned out to be 14. In addition, in data set [7] (setting [13]), the ED50 is 0.1 mg/kg.

For orientation: Ki means a dissociation constant, usually derived from enzyme kinetics or from competition with a known ligand.
